Measured values: patent US9681664B2, “Macrocyclic picolinamides as fungicides” (Dow Agrosciences LLC, priority 2012, dated 2017)
Read-outs that look alike come from different tables or passages of the source.

What was measured:
[1] = system: Puccinia triticina; Synonym: Puccinia recondite f. sp. tritici; assay: Wheat brown rust (PUCCRT) disease control on wheat seedlings; format: in vivo; details: for pest or weed control at 100 ppm / pest or weed control at 121.5 g/ha: Puccinia triticina, Wheat Brown Rust; for pest or weed control at 100 ppm: high volume application; for pest or weed control at 121.5 g/ha: low volume application, 121.5 g/H; for PUCCRT 1DP disease control / PUCCRT 3DC disease control: High volume application; for pest or weed control at 100 ppm / PUCCRT 1DP disease control / PUCCRT 3DC disease control: 100 ppm
How it was run: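 Yuma wheat grown to first fully emerged leaf was inoculated with Puccinia triticina spore suspension either before or after fungicide treatment, held overnight at 22° C. and 100% RH in darkness, then kept at 24° C. Fungicide applied by booth sprayer to run-off (acetone/water, 110 ppm Triton X-100) or as EC by track spray.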

[2] = system: Mycosphaerella graminicola; Anamorph: Septoria tritici; assay: Leaf blotch of wheat (SEPTTR) disease control on wheat seedlings; format: in vivo; details: for pest or weed control at 100 ppm / pest or weed control at 121.5 g/ha: Zymoseptoria tritici, Wheat Leaf Blotch; for pest or weed control at 100 ppm: high volume application; for pest or weed control at 121.5 g/ha: low volume application, 121.5 g/H; for SEPTTR 1DP disease control / SEPTTR 3DC disease control: High volume application; for pest or weed control at 100 ppm / SEPTTR 1DP disease control / SEPTTR 3DC disease control: 100 ppm
How it was run: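 Protective or curative format: Septoria tritici inoculation either preceded or followed fungicide application to first-leaf Yuma wheat. Severity scored 0–100%; control expressed versus untreated.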

[3] = 24 h, 1 Day Protectant, read-out: Disease Control PUCCRT 1 DP 100 ppm
[4] = 72 h, 3 Day Curative, read-out: Disease Control PUCCRT 3 DC 100 ppm
[5] = 24 h, 1 Day Protectant, read-out: Disease Control SEPTTR 1 DP 100 ppm
[6] = 72 h, 3 Day Curative, read-out: Disease Control SEPTTR 3 DC 100 ppm
[7] = 24 h, 1 Day Protectant, read-out: Disease Control PUCCRT 1 DP 121.5 g/H
[8] = 72 h, 3 Day Curative, read-out: Disease Control PUCCRT 3 DC 121.5 g/H
[9] = 24 h, 1 Day Protectant, read-out: Disease Control SEPTTR 1 DP 121.5 g/H
[10] = 72 h, 3 Day Curative, read-out: Disease Control SEPTTR 3 DC 121.5 g/H

Compound | pest or weed control at 100 ppm [1, 3] [%] | pest or weed control at 100 ppm [1, 4] [%] | pest or weed control at 100 ppm [2, 5] [%] | pest or weed control at 100 ppm [2, 6] [%] | pest or weed control at 121.5 g/ha [1, 7] [%] | pest or weed control at 121.5 g/ha [1, 8] [%] | pest or weed control at 121.5 g/ha [2, 9] [%] | pest or weed control at 121.5 g/ha [2, 10] [%] | PUCCRT 1DP disease control ([1]; 1 Day Protectant) | PUCCRT 3DC disease control ([1]; 3 Day Curative) | SEPTTR 1DP disease control ([2]; 1 Day Protectant) | SEPTTR 3DC disease control ([2]; 3 Day Curative)
CCCO[C@H]1CCC[C@H](NC(=O)c2nccc(OC)c2O)C(=O)O[C@@H](C)[C@@H]1Oc1ccc(F)cc1 [F262] | 0 to 80 | 80 to 100 | 80 to 100 | 80 to 100 | – | – | – | – | – | – | – | –
CCCO[C@H]1[C@H](C)OC(=O)[C@@H](NC(=O)c2nccc(OC)c2O)CCC[C@@H]1Oc1ccc(F)cc1 [F264] | 0 to 80 | 80 to 100 | 80 to 100 | 0 to 80 | – | – | – | – | – | – | – | –
CCCO[C@H]1CCC[C@H](NC(=O)c2nccc(OC)c2OCOC(C)=O)C(=O)O[C@@H](C)[C@@H]1Oc1ccc(F)cc1 [F265] | 80 to 100 | 80 to 100 | 80 to 100 | 80 to 100 | 80 to 100 | 0 to 80 | 80 to 100 | – | – | – | – | –
CCCO[C@H]1CCC[C@H](NC(=O)c2nccc(OC)c2OC(C)=O)C(=O)O[C@@H](C)[C@@H]1Oc1ccc(F)cc1 [F266] | – | – | – | – | 80 to 100 | 80 to 100 | 80 to 100 | – | – | – | – | –
CCCO[C@H]1[C@H](C)OC(=O)[C@@H](NC(=O)c2nccc(OC)c2OCOC(C)=O)CCC[C@@H]1Oc1ccc(F)cc1 [F267] | 80 to 100 | 80 to 100 | 80 to 100 | 80 to 100 | – | – | – | – | – | – | – | –
CCCO[C@H]1CCC[C@H](NC(=O)c2nccc(OC)c2O)C(=O)O[C@@H](C)[C@@H]1Oc1ccc(OC)cc1 [F270] | 80 to 100 | 80 to 100 | 80 to 100 | 0 to 80 | – | – | – | – | – | – | – | –
CCCO[C@H]1CCC[C@H](NC(=O)c2nccc(OC)c2O)C(=O)O[C@@H](C)[C@@H]1Oc1cccc(F)c1 [F271] | 80 to 100 | 80 to 100 | 80 to 100 | 80 to 100 | – | – | – | – | – | – | – | –
CCCO[C@H]1CCC[C@H](NC(=O)c2nccc(OC)c2O)C(=O)O[C@@H](C)[C@@H]1Oc1cccc(Cl)c1 [F272] | 80 to 100 | 80 to 100 | 80 to 100 | 80 to 100 | – | – | – | – | – | – | – | –
CCCO[C@H]1CCC[C@H](NC(=O)c2nccc(OC)c2O)C(=O)O[C@@H](C)[C@@H]1Oc1ccc(Br)cc1 [F273] | 80 to 100 | 80 to 100 | 80 to 100 | 0 to 80 | – | – | – | – | – | – | – | –
CCCO[C@H]1CCC[C@H](NC(=O)c2nccc(OC)c2OC(C)=O)C(=O)O[C@@H](C)[C@@H]1Oc1ccc(OC)cc1 [F274] | 80 to 100 | 80 to 100 | 80 to 100 | 80 to 100 | 80 to 100 | 0 to 80 | 80 to 100 | 80 to 100 | – | – | – | –
CCCO[C@H]1CCC[C@H](NC(=O)c2nccc(OC)c2OC(C)=O)C(=O)O[C@@H](C)[C@@H]1Oc1cccc(F)c1 [F275] | 80 to 100 | 80 to 100 | 80 to 100 | 80 to 100 | 80 to 100 | 80 to 100 | 80 to 100 | 80 to 100 | – | – | – | –
CCCO[C@H]1[C@H](C)OC(=O)[C@@H](NC(=O)c2nccc(OC)c2O)CCC[C@@H]1Oc1cccc(F)c1 [F280] | 80 to 100 | 0 to 80 | 80 to 100 | 80 to 100 | – | – | – | – | – | – | – | –
CCCO[C@H]1[C@H](C)OC(=O)[C@@H](NC(=O)c2nccc(OC)c2O)CCC[C@@H]1Oc1cc(C)cc(C)c1 [F281] | 80 to 100 | 0 to 80 | 0 to 80 | 0 to 80 | – | – | – | – | – | – | – | –
CCCO[C@H]1[C@H](C)OC(=O)[C@@H](NC(=O)c2nccc(OC)c2OC(C)=O)CCC[C@@H]1Oc1cc(C)cc(C)c1 [F282] | 80 to 100 | 80 to 100 | 80 to 100 | 80 to 100 | 80 to 100 | 80 to 100 | 80 to 100 | 80 to 100 | – | – | – | –
CCCO[C@H]1CCC[C@H](NC(=O)c2nccc(OC)c2O)C(=O)O[C@@H](C)[C@@H]1Oc1ccc(-c2ccccc2)cc1 [F283] | 80 to 100 | 0 to 80 | 80 to 100 | 0 to 80 | – | – | – | – | – | – | – | –
CCCO[C@H]1[C@H](C)OC(=O)[C@@H](NC(=O)c2nccc(OC)c2OC(C)=O)CCC[C@@H]1Oc1cccc(F)c1 [F284] | 80 to 100 | 80 to 100 | 80 to 100 | 80 to 100 | 80 to 100 | 80 to 100 | 80 to 100 | 80 to 100 | – | – | – | –
CCCO[C@H]1CCC[C@H](NC(=O)c2nccc(OC)c2OC(C)=O)C(=O)O[C@@H](C)[C@@H]1Oc1ccc(Br)cc1 [F285] | 80 to 100 | 0 to 80 | 80 to 100 | 80 to 100 | 80 to 100 | 80 to 100 | 80 to 100 | 80 to 100 | – | – | – | –
CCCO[C@H]1CCC[C@H](NC(=O)c2nccc(OC)c2OC(C)=O)C(=O)O[C@@H](C)[C@@H]1Oc1cccc(Cl)c1 [F286] | 80 to 100 | 80 to 100 | 80 to 100 | 80 to 100 | 80 to 100 | 0 to 80 | 80 to 100 | 80 to 100 | – | – | – | –
CCCO[C@H]1CCC[C@H](NC(=O)c2nccc(OC)c2OC(C)=O)C(=O)O[C@@H](C)[C@@H]1Oc1ccc(-c2ccccc2)cc1 [F287] | 80 to 100 | 80 to 100 | 80 to 100 | 80 to 100 | 80 to 100 | 80 to 100 | 80 to 100 | 80 to 100 | – | – | – | –
C=C(C)c1ccc(O[C@H]2[C@H](C)OC(=O)[C@@H](NC(=O)c3nccc(OC)c3O)CCC[C@@H]2OCCC)cc1 [F288] | 80 to 100 | 80 to 100 | 80 to 100 | 80 to 100 | – | – | – | – | – | – | – | –
C=C(C)c1ccc(O[C@H]2[C@H](C)OC(=O)[C@@H](NC(=O)c3nccc(OC)c3OC(C)=O)CCC[C@@H]2OCCC)cc1 [F289] | 80 to 100 | 80 to 100 | 80 to 100 | 80 to 100 | 80 to 100 | 80 to 100 | 80 to 100 | 80 to 100 | – | – | – | –
CCCOC(=O)O[C@H]1CCC[C@H](NC(=O)c2nccc(OC)c2O)C(=O)O[C@@H](C)[C@@H]1Oc1cc(C)cc(C)c1 [F290] | 80 to 100 | 80 to 100 | 0 to 80 | 0 to 80 | – | – | – | – | – | – | – | –
CCCOC(=O)O[C@H]1CCC[C@H](NC(=O)c2nccc(OC)c2OC(C)=O)C(=O)O[C@@H](C)[C@@H]1Oc1cc(C)cc(C)c1 [F291] | 80 to 100 | 0 to 80 | 80 to 100 | 80 to 100 | – | – | – | – | – | – | – | –
N-[(3S,7S,8S,9S)-7,8-dibenzyloxy-9-methyl-2-oxo-oxonan-3-yl]-3-hydroxy-4-methoxypyridine-2-carboxamide [F15] | – | – | – | – | – | – | – | – | A (80-100) | A (80-100) | A (80-100) | A (80-100)
[2-[[(3S,7S,8S,9S)-7-(cyclopentoxy)-9-methyl-2-oxo-8-propoxy-oxonan-3-yl]carbamoyl]-4-methoxy-3-pyridyl]3-methoxypropanoate [F19] | – | – | – | – | – | – | – | – | A (80-100) | A (80-100) | A (80-100) | A (80-100)
[2-[[(3S,7S,8S,9S)-8-isobutoxy-9-methyl-7-(2-methylallyloxy)-2-oxo-oxonan-3-yl]carbamoyl]-4-methoxy-3-pyridyl]acetate [F18] | – | – | – | – | – | – | – | – | A (80-100) | A (80-100) | A (80-100) | A (80-100)
